Data reported in ChEMBL document CHEMBL5661943, “ASAP - In vitro antiviral effect” (2024).
“And” between values parts separate entries of the source, which are not always exact repeats. Equal values may be shown once.

What was measured:
Zika virus [1] = assay: (§1) Functional CPE-based assay to measure dose dependent changes in antiviral-drug inhibitory efficacy against Zika virus MR766 in Vero E6 miRFP670 cells. Cells are treated with antiviral candidates that are serially diluted. EC50 is reported via analysis of MTS assay as a readout of CPE. The assay has been performed by KU Leuven.; format: organism-based, Chlorocebus sabaeus, Vero C1008; settings: Zika virus; for EC50: Vero C1008
Zika virus [2] = assay: as §1, with “cells (cotreated with P-gp inhibitor, CP100356).” for “cells.”; format: organism-based, Chlorocebus sabaeus, Vero C1008; settings: Zika virus; for EC90: P-gp concentration 500 nM, P-gp inhibitor CP100356
dengue virus type 2 [3] = assay: Functional assay to measure dose dependent changes in antiviral-drug inhibitory efficacy against Dengue virus type 2 New Guinea C in Vero E6 miRFP670 cells (cotreated with P-gp inhibitor, CP100356). Cells are treated with antiviral candidates that are serially diluted, following infection, cells are fixed. EC50 is reported via analysis of fluorescence intensity using high-content imager. The …; format: organism-based, Chlorocebus sabaeus, Vero C1008; settings: Dengue virus; for EC50: Vero C1008; for EC90: P-gp concentration 500 nM, P-gp inhibitor CP100356
Zika virus [4] = assay: EC50 is reported via analysis of immunofluorescence staining. The assay has been performed by Icahn School of Medicine at Mount Sinai.; format: functional, organism-based, Chlorocebus sabaeus, VeroE6/TMPRSS2; settings: for EC90: P-gp concentration 2 uM, P-gp inhibitor Elacidar
dengue virus type 2 [5] = assay: Functional immunofluorescence assay to measure dose dependent changes in antiviral-drug inhibitory efficacy against Dengue virus type 2 Thailand/16681/84 in Vero E6/TMPRSS2 cells (cotreated with P-gp inhibitor, Elacridar). Cells are treated with antiviral candidates that are serially diluted, following infection, cells are fixed. EC50 is reported via analysis of immunofluorescence staining. The assay has been performed by Icahn School of Medicine at Mount Sinai.; format: organism-based, Chlorocebus sabaeus, VeroE6/TMPRSS2; settings: Dengue virus; for EC90: P-gp concentration 2 uM, P-gp inhibitor Elacidar

`O=C(Nc1ccc2c(c1)CNCC2)c1cc(Cl)cc2[nH]ncc12` was tested, and the EC50 (Zika virus [1]) was > 50 µM and the EC90 (Zika virus [1]; Vero C1008, Maximum measured 0.588 %, Minimum measured -2.808 %) was > 50 µM.
`CC(C)(C)c1cc(Br)cc(C(=O)Nc2ccc3c(c2)CNC3)c1` was tested, and the EC50 (Zika virus [1]) was > 50 µM and the EC90 (Zika virus [1]; Vero C1008, Baseline response 0 %, Hill slope -3.526, Maximum measured 2.777 %, Maximum response 100 %, Minimum measured -2.992 %, R squared 0.044) was > 50 µM.
For `CN1Cc2ccc(NC(=O)c3cc(Cl)cc4[nH]ncc34)cc2C1`, the EC50 (Zika virus [1]) was > 50 µM and the EC90 (Zika virus [1]; Vero C1008, Baseline response 0 %, Hill slope -0.359, Maximum measured 1.713 %, Maximum response 100 %, Minimum measured -2.397 %, R squared 0.026) was > 50 µM.
For `N#CCCNC(=O)[C@H](Nc1ccc2c(c1)CNC2)c1cc(Cl)cc(C2CC2)c1`, the EC50 (Zika virus [2]; Vero C1008) was 4.22 µM, the EC90 (Zika virus [2]; Vero C1008, Baseline response 0 %, EC90 CI (lower) 2.191 uM, EC90 CI (upper) 28.402 uM, Hill slope 3.509, Maximum measured 177.981 %, Maximum response 100 %, Minimum measured 1.478 %, R squared 0.727) was 7.89 µM and the EC50 (dengue virus type 2 [3]) was > 50 µM. For the same compound, the EC90 (dengue virus type 2 [3]; Vero C1008, Maximum measured 137.124 %, Minimum measured 107.523 %) was > 50 µM, the EC90 (Zika virus [4]; Zika virus, VeroE6/TMPRSS2, Maximum measured 63.585 %, Minimum measured 35.457 %) was > 5.56 µM and the EC90 (Zika virus [4]; Zika virus, VeroE6/TMPRSS2, Baseline response 0 %, Hill slope -0.414, Maximum measured 108.813 %, Maximum response 100 %, Minimum measured 38.683 %, R squared 0.619) was > 16.7 µM. The EC50 (Zika virus [4]; veroe6/tmprss2) was > 5.56 µM and 2.54 µM, the EC50 (dengue virus type 2 [5]; VeroE6/TMPRSS2) was > 50 µM and the EC90 (dengue virus type 2 [5]; VeroE6/TMPRSS2, Maximum measured 184.621 %, Minimum measured 81.605 %) was > 50 µM.
For `O=C(Nc1ccc2c(c1)CNC2)c1cc(F)cc2[nH]nnc12`, the EC50 (Zika virus [2]; Vero C1008) was > 50 µM, the EC90 (Zika virus [2]; Vero C1008, Maximum measured -0.357 %, Minimum measured -5.629 %) was > 50 µM and the EC50 (dengue virus type 2 [3]) was > 50 µM. For the same compound, the EC90 (dengue virus type 2 [3]; Vero C1008, Maximum measured 103.909 %, Minimum measured 99.111 %) was > 50 µM, the EC50 (Zika virus [4]; Zika virus, VeroE6/TMPRSS2) was > 50 µM and the EC90 (Zika virus [4]; Zika virus, VeroE6/TMPRSS2, Maximum measured 143.994 %, Minimum measured 34.535 %) was > 50 µM. For the same compound, the EC50 (dengue virus type 2 [5]; VeroE6/TMPRSS2) was > 50 µM, the EC90 (dengue virus type 2 [5]; VeroE6/TMPRSS2, Maximum measured 175.922 %, Minimum measured 81.786 %) was > 50 µM and the EC90 (dengue virus type 2 [5]; VeroE6/TMPRSS2, Baseline response 0 %, Hill slope 0.135, Maximum measured 108.442 %, Maximum response 100 %, Minimum measured 80.171 %, R squared 0.018) was > 50 µM.
For `CC(C)c1cc(Br)cc(C(=O)Nc2ccc3c(c2)CNC3)c1`, the EC50 (Zika virus [1]) was > 50 µM and the EC90 (Zika virus [1]; Vero C1008, Baseline response 0 %, Hill slope -0.823, Maximum measured 6.311 %, Maximum response 100 %, Minimum measured -3.726 %, R squared 0.279) was > 50 µM.
For `Cn1cc(CNC(=O)[C@H](Nc2ccc3c(c2)CNC3)c2cc(Cl)cc(C3CC3)c2)cn1`, the EC50 (Zika virus [2]; Vero C1008) was > 50 µM, the EC90 (Zika virus [2]; Vero C1008, Maximum measured -1.973 %, Minimum measured -8.89 %) was > 50 µM and the EC50 (dengue virus type 2 [3]) was > 50 µM. The EC90 (dengue virus type 2 [3]; Vero C1008, Maximum measured 110.921 %, Minimum measured 103.415 %) was > 50 µM, the EC90 (Zika virus [4]; Zika virus, VeroE6/TMPRSS2, Maximum measured 136.439 %, Minimum measured 82.812 %) was > 5.56 µM and the EC90 (Zika virus [4]; Zika virus, VeroE6/TMPRSS2, Maximum measured 172.39 %, Minimum measured 65.114 %) was > 50 µM. The EC50 (Zika virus [4]; veroe6/tmprss2) was > 50 µM, the EC50 (dengue virus type 2 [5]; VeroE6/TMPRSS2) was > 50 µM and the EC90 (dengue virus type 2 [5]; VeroE6/TMPRSS2, Maximum measured 219.34 %, Minimum measured 69.596 %) was > 50 µM.
With `COC(=O)CNC(=O)[C@H](Nc1ccc2c(c1)CNC2)c1cc(Cl)cc(C2CC2)c1` the EC50 (Zika virus [2]; Vero C1008) was > 50 µM, the EC90 (Zika virus [2]; Vero C1008, Baseline response 0 %, Hill slope 2.666, Maximum measured 16.971 %, Maximum response 100 %, Minimum measured -1.569 %, R squared 0.882) was > 50 µM and the EC50 (dengue virus type 2 [3]) was > 50 µM. The EC90 (dengue virus type 2 [3]; Vero C1008, Maximum measured 109.152 %, Minimum measured 106.626 %) was > 50 µM, the EC90 (Zika virus [4]; Zika virus, VeroE6/TMPRSS2, Maximum measured 147.006 %, Minimum measured 69.301 %) was > 16.7 µM and the EC90 (Zika virus [4]; Zika virus, VeroE6/TMPRSS2, Baseline response 0 %, Hill slope -5.229, Maximum measured 154.716 %, Maximum response 100 %, Minimum measured 79.745 %, R squared 0.023) was > 5.56 µM. The EC50 (Zika virus [4]; veroe6/tmprss2) was > 16.7 µM, the EC50 (dengue virus type 2 [5]; VeroE6/TMPRSS2) was > 50 µM and the EC90 (dengue virus type 2 [5]; VeroE6/TMPRSS2, Maximum measured 158.675 %, Minimum measured 120.715 %) was > 50 µM.
`N#C[C@H](Nc1cncc(-c2nn[nH]n2)c1)c1cc(Cl)cc(NC(=O)OCc2ccccc2)c1` was tested, and the EC50 (Zika virus [1]) was > 50 µM and the EC90 (Zika virus [1]; Vero C1008, Baseline response 0 %, Hill slope -0.546, Maximum measured 2.599 %, Maximum response 100 %, Minimum measured -1.254 %, R squared 0.412) was > 50 µM.
In the case of `O=C(Nc1cc(Cl)cc([C@H]2[C@H](CO)[C@@H]2c2cccc(-c3nn[nH]n3)c2)c1)OCc1ccccc1`, the EC50 (Zika virus [1]) is reported as > 50 µM and the EC90 (Zika virus [1]; Vero C1008, Baseline response 0 %, Hill slope -0.077, Maximum measured 3.793 %, Maximum response 100 %, Minimum measured 1.644 %, R squared 0.146) is reported as > 50 µM.
